Laboratory results: patent US20250082931A1, “Treating Gastric Cancer Using TTFields Combined with XELOX, FOLFOX or the Individual Constituents Thereof” (Novocure GmbH, priority 2019, published 2025)

What was measured:
KATO III cells [1] = assay: Cytotoxic effect by cell count after 72 h, with and without TTFields
Protocol: (§1) During the treatment the media of all dishes was replaced every 24 h (“hours”).
(§2) After 72 h of treatment the media and the cells were collected, and cytotoxicity was determined by cell counts.
(§3) Cells were seeded on inovitro dishes and petri dishes 24 h before starting the experiments. Media containing the indicated concentration of each chemotherapy component alone or FOLFOX and control media was added to the cells and the dishes were connected to TTFields (as in SOP-BI-009) or grown in 37° C., 5% CO2 for 72 h. Each treatment included 8 repeats (8 dishes). The media was replaced every 24 h. At the end of the experiment the cells were collected, and cytotoxicity was determined by cell counts, small number of cells were seeded for colonies and the cells (including cells from the media) were stained for Annexin V and 7AAD for apoptosis analysis.
(§4) A TTFields generator (Inovitro systems) was used to apply the treatment to the cells.
(§5) Cytotoxic effect: Average and standard deviation of cell number of at least 5 dishes from each treatment was calculated in Excel software. The averages from these repeats was calculated to averages and standard error and is presented as percent from control (no drug treatment) in XY graph of points with error bars using GraphPed software. Significant was determine by 2-way ANOVA followed Multiple comparison using GraphPed software.

AGS cells [2] = assay: Apoptosis analysis by Annexin V / 7AAD staining; type: cell-based; settings: for AnnV+ 7AAD+ cell fraction / AnnV+ 7AAD− cell fraction / AnnV− 7AAD+ cell fraction / AnnV− 7AAD− cell fraction: 72 h
Protocol: After 72 h of treatment the media and the cells were collected, and cytotoxicity was determined by cell counts. Cells (including cells from the media) were stained for Annexin V and 7AAD for apoptosis analysis. For the testing of the clonogenic effect, cells were seeded for colonies.
as §3
Apoptotic effect: Average of cell fraction of each marker staining (Annexin V and 7AAD) of at least 5 dishes from each treatment was calculated in Excel software. The averages from these repeats was calculated to averages and is presented in stacked bar graph using GraphPed software.

KATO III cells [3] = assay: Clonogenic effect (colonies count); settings: for colonies count: 72 h;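 for all read-outs here: after treatment, KATO III cells were reseeded and grown 6–14 days, then colonies were fixed, stained and counted, expressed as percent of untreated (no drug) control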
Protocol: (§6) After 72 h of treatment the media and the cells were collected, and cytotoxicity was determined by cell counts. […] For the testing of the clonogenic effect, cells were seeded for colonies.
(§7) After 6-14 days the colonies were fixed, stained and counted to determine clonogenic effect. The overall effect was calculated by multiplying the cytotoxic effect and the clonogenic effect.
(§8) Clonogenic effect: The colonies from each well were counted using ImageJ software. Average and standard deviation of colony number of at least 5 wells from each treatment were calculated in excel software. The averages from these repeats was calculated to averages and standard errors and is presented as percent from control (no drug treatment) in XY graph of points with error bars using GraphPed software. Significant was determine by 2-way ANOVA followed Multiple comparison using GraphPed software.

KATO III cells [4] = test system: KATO III cells
Protocol: as §1, §2, §3, §4, §5

AGS cells [5] = assay: Clonogenic effect (colonies count); type: cell-based; settings: for colonies count: 72 h
Protocol: as §6, §7, §8

AGS cells [6] = test system: AGS cells
[7] = 1.5 uM, + TTFields 150 kHz 1.6 V/cm
[8] = 4.5 uM, + TTFields 150 kHz 1.6 V/cm
[9] = 13.5 uM, + TTFields 150 kHz 1.6 V/cm
[10] = 40 uM, + TTFields 150 kHz 1.6 V/cm
[11] = 0.5 uM, + TTFields 150 kHz 1.0 V/cm
[12] = 1.5 uM, + TTFields 150 kHz 1.0 V/cm
[13] = 4.5 uM, + TTFields 150 kHz 1.0 V/cm
[14] = 13.5 uM, + TTFields 150 kHz 1.0 V/cm
[15] = FOLFOX experiment, 0.5 uM, + TTFields 150 kHz 1.0 V/cm
[16] = FOLFOX experiment, 0.5 uM, no TTFields

Q: Which results are given for `O=c1[nH]cc(F)c(=O)[nH]1` [5-FU, 5-fluorouracil]?
A: cell count (KATO III cells [1]; [7]): 47 % from control; cell count (KATO III cells [1]; 1.5 uM, no TTFields): 70 % from control; cell count (KATO III cells [1]; [8]): 42 % from control; cell count (KATO III cells [1]; 4.5 uM, no TTFields): 56 % from control; cell count (KATO III cells [1]; [9]): 34 % from control; cell count (KATO III cells [1]; 13.5 uM, no TTFields): 47 % from control; cell count (KATO III cells [1]; [10]): 32 % from control; cell count (KATO III cells [1]; 40 uM, no TTFields): 34 % from control; cell count (KATO III cells [1]; FOLFOX experiment, 1.5 uM, + TTFields 150 kHz 1.6 V/cm): 50 % from control; cell count (KATO III cells [1]; FOLFOX experiment, 1.5 uM, no TTFields): 73 % from control; elevation in percent of cells that undergo apoptosis, drug + TTFields compared to drug alone (AGS cells [2]): higher; AnnV+ 7AAD+ cell fraction (AGS cells [2]; [11]): 8.00%; AnnV+ 7AAD− cell fraction (AGS cells [2]; [11]): 6.38%; AnnV− 7AAD+ cell fraction (AGS cells [2]; [11]): 1.03%; AnnV− 7AAD− cell fraction (AGS cells [2]; [11]): 84.58%; AnnV+ 7AAD+ cell fraction (AGS cells [2]; 0.5 uM, no TTFields): 5.33%; AnnV+ 7AAD− cell fraction (AGS cells [2]; 0.5 uM, no TTFields): 4.48%; AnnV− 7AAD+ cell fraction (AGS cells [2]; 0.5 uM, no TTFields): 1.40%; AnnV− 7AAD− cell fraction (AGS cells [2]; 0.5 uM, no TTFields): 88.78%; AnnV+ 7AAD+ cell fraction (AGS cells [2]; [12]): 9.05%; AnnV+ 7AAD− cell fraction (AGS cells [2]; [12]): 5.90%; AnnV− 7AAD+ cell fraction (AGS cells [2]; [12]): 1.28%; AnnV− 7AAD− cell fraction (AGS cells [2]; [12]): 83.80%; AnnV+ 7AAD+ cell fraction (AGS cells [2]; 1.5 uM, no TTFields): 5.48%; AnnV+ 7AAD− cell fraction (AGS cells [2]; 1.5 uM, no TTFields): 5.03%; AnnV− 7AAD+ cell fraction (AGS cells [2]; 1.5 uM, no TTFields): 1.23%; AnnV− 7AAD− cell fraction (AGS cells [2]; 1.5 uM, no TTFields): 88.25%; AnnV+ 7AAD+ cell fraction (AGS cells [2]; [13]): 12.35%; AnnV+ 7AAD− cell fraction (AGS cells [2]; [13]): 6.78%; AnnV− 7AAD+ cell fraction (AGS cells [2]; [13]): 2.48%; AnnV− 7AAD− cell fraction (AGS cells [2]; [13]): 78.43%; AnnV+ 7AAD+ cell fraction (AGS cells [2]; 4.5 uM, no TTFields): 6.40%; AnnV+ 7AAD− cell fraction (AGS cells [2]; 4.5 uM, no TTFields): 5.08%; AnnV− 7AAD+ cell fraction (AGS cells [2]; 4.5 uM, no TTFields): 1.25%; AnnV− 7AAD− cell fraction (AGS cells [2]; 4.5 uM, no TTFields): 87.28%; AnnV+ 7AAD+ cell fraction (AGS cells [2]; [14]): 14.45%; AnnV+ 7AAD− cell fraction (AGS cells [2]; [14]): 8.70%; AnnV− 7AAD+ cell fraction (AGS cells [2]; [14]): 2.63%; AnnV− 7AAD− cell fraction (AGS cells [2]; [14]): 74.20%; AnnV+ 7AAD+ cell fraction (AGS cells [2]; 13.5 uM, no TTFields): 8.45%; AnnV+ 7AAD− cell fraction (AGS cells [2]; 13.5 uM, no TTFields): 6.20%; AnnV− 7AAD+ cell fraction (AGS cells [2]; 13.5 uM, no TTFields): 0.90%; AnnV− 7AAD− cell fraction (AGS cells [2]; 13.5 uM, no TTFields): 84.45%; AnnV+ 7AAD+ cell fraction (AGS cells [2]; [15]): 10.3%; AnnV+ 7AAD− cell fraction (AGS cells [2]; [15]): 7.3%; AnnV− 7AAD+ cell fraction (AGS cells [2]; [15]): 1.7%; AnnV− 7AAD− cell fraction (AGS cells [2]; [15]): 80.8%; AnnV+ 7AAD+ cell fraction (AGS cells [2]; [16]): 4.3%; AnnV+ 7AAD− cell fraction (AGS cells [2]; [16]): 4.8%; AnnV− 7AAD+ cell fraction (AGS cells [2]; [16]): 1.8%; AnnV− 7AAD− cell fraction (AGS cells [2]; [16]): 89.1%; colonies count (KATO III cells [3]; [7]): 50 % from control; colonies count (KATO III cells [3]; 1.5 uM, no TTFields): 83 % from control; colonies count (KATO III cells [3]; [8]): 38 % from control; colonies count (KATO III cells [3]; 4.5 uM, no TTFields): 55 % from control; colonies count (KATO III cells [3]; [9]): 8 % from control; colonies count (KATO III cells [3]; 13.5 uM, no TTFields): 9 % from control; colonies count (KATO III cells [3]; [10]): 1 % from control; colonies count (KATO III cells [3]; 40 uM, no TTFields): 2 % from control; colonies number (clonogenic effect and overall effect), drug + TTFields compared to drug alone (KATO III cells [3]; Two-way ANOVA P<0.001): significant reduction in colonies number; cytotoxic effect of drug + TTFields compared to drug alone (KATO III cells [4]): significantly higher; colonies count (AGS cells [5]; [11]): 51 % from control; colonies count (AGS cells [5]; 0.5 uM, no TTFields): 95 % from control; colonies count (AGS cells [5]; [12]): 59 % from control; colonies count (AGS cells [5]; 1.5 uM, no TTFields): 90 % from control; colonies count (AGS cells [5]; [13]): 35 % from control; colonies count (AGS cells [5]; 4.5 uM, no TTFields): 74 % from control; colonies count (AGS cells [5]; [14]): 11 % from control; colonies count (AGS cells [5]; 13.5 uM, no TTFields): 9 % from control; colonies count (AGS cells [5]; 40 uM, + TTFields 150 kHz 1.0 V/cm): 0 % from control; colonies count (AGS cells [5]; 40 uM, no TTFields): 0 % from control; colonies count (AGS cells [5]; [15]): 59 % from control; colonies count (AGS cells [5]; [16]): 100 % from control; colonies number (clonogenic effect and overall effect), drug + TTFields compared to drug alone (AGS cells [5]; Two-way ANOVA P<0.001): significant reduction in colonies number; cytotoxic effect of drug + TTFields compared to drug alone (AGS cells [6]): significantly higher
